Measurements: patent US20050220779A1, “Integrin linked kinase modulation of macrophage activation” (priority 2001, published 2005)

How the values were obtained:
RAW 264.7 cells = experiment: Cell survival by crystal violet staining, RAW 264.7 cells; type: cell-based; conditions: 50 μM, 24 h, DMSO-treated = 100%
Method: Treatment of primary macrophages and RAW 264.7 cells. Primary macrophages (1.5×10^5 cells/well) and RAW 264.7 (4×10^4 cells/well) cells were grown in 96-well plates (nitrite assay), or 6-well plates (2×10^6 cells/well) for measurement of iNOS and COX-2 expression. Following 3 h incubation, at 37 C, 5% CO2 (macrophages were allowed to attach) cells were stimulated with LPS (0.5 μg/ml) and IFN-γ (100 U/ml) in the absence or presence of various concentrations of ILK inhibitors (all treatments were replicated six times). Cells were incubated for an additional 24 h, and cell free culture supernatants from each well were collected for NO and cytokine determination. The remaining cells were stained with crystal violet to determine effect of the inhibitors on cell survival.
Effect of ILK Inhibitors on suppression of NO production and cell survival. Twenty-four hours following treatment with the ILK inhibitors, aliquots from the cell-free supernatants were assayed for NO and IL-6 release. Surviving cells were stained and fixed (crystal violet 0.05% in 20% ethanol), to determine if the decrease in NO production was related to a decrease in cell number due to toxicity of the compounds. […] Only those compounds that induced strong inhibition of NO release, and caused no significant cell death were selected for further evaluation.

COX-2 = COX-2 protein expression in LPS-IFN-γ stimulated macrophages (western blot); type: cell-based, murine; conditions: LPS-IFN-γ stimulated macrophages, western blot
Method: Western blot analysis. After incubation with the indicated stimuli in the presence of ILK inhibitors, cells (duplicate samples, 2×10^6cell/6-wells plate) were washed in PBS and lysed on ice in 60 μl of lysis buffer. The protein content of each sample was determined using the Bradford protein assay kit (Bio-Rad, Richmond, Calif.). Absorbance was measured at 750 nm with a Beckman DU530 spectrophotometer (Palo Alto, Calif.). Proteins were mixed with 45×SDS sample buffer. Following separation of proteins by SDS-PAGE, using 8% bis-acrylamide in the separation gel, the proteins were transferred from the gels onto PVDF membranes using a MiniProtean III Cell (Bio-Rad), at 100 V for 1.5 h. Equal amounts of protein (5 μg) were loaded onto SDS-PAGE gels and examined by Western blot analysis with anti-Actin, anti-iNOS, anti-COX-2 murine monoclonal antibodies according to the manufacturers specifications (Transduction Laboratories). […] The Multi-Analyst/PC system from Biorad is being used to quantitate the bands of the expressed protein on the film. […] White light is chosen as the selected light source, thus the signal strength is measured in OD (optic density) units. […]
Effects of ILK inhibitors on the LPS-IFN-γ-induced iNOS and COX-2 expression NO production requires that iNOS be enzymatically activity, therefore experiments were performed to examine whether the inhibitory effect of ILK inhibitors was mediated by […] iNOS protein synthesis or effects on the activity of existing enzyme. Stimulated cells were treated with ILK inhibitors (25 μM), and lysed 16 h later and a western blot analysis was performed to quantitate iNOS protein expression. […]
Nitric oxide and Prostaglandin E2 are two pleiotropic mediators produced at inflammatory sites by the inducible enzymes iNOS and cyclooxygenase-2 (COX-2), respectively. […] Finally, we evaluated the in-vitro effects of compounds on production of MCP-1 chemokine by TNF-α stimulated HUVEC cells. […]

SMILES | Survival (%) (RAW 264.7 cells) | COX-2 protein expression (in words) (COX-2)
N=C(N)N/N=C/c1ccc(Cl)cc1Cl [KP-16735] | 51 | significant decrease of COX-2 protein expression
Oc1ccc2c(c1)CC1NCCc3cc(O)c(O)c-2c31 (stereo not shown) [KP-21849, 5,6,6a,7-Tetrahydro-4H-dibenzo[de,g]quinoline-1,2,9-triol] | 51 | significant decrease of COX-2 protein expression
